Laboratory results: patent publication US20110130464A1, “Combination Agent for Improving Carcass Performance in Finishing Pigs” (IGENE BIOTECHNOLOGY, INC., priority 2008, published 2011)
Counter-ions that a name gives are not always drawn.

Tests used:
pigs = conditions: Trapp et al. 2002; cited from earlier work
finishing pigs [1] = assay: Growth performance and carcass characteristics of finishing pigs fed astaxanthin with or without Paylean; format: in vivo; conditions: for ADFI (Average Daily Feed Intake) / ADG (Average Daily Gain) / F/G (Pounds of feed to gain one pound of weight) / G/F (Reciprocal of F/G): 26 d
Description: Procedures used in the experiment were approved by the Kansas State University (KSU) Animal Care and Use Committee. The project was conducted at the KSU Swine Teaching and Research Farm. Pigs were housed in an environmentally-regulated finishing building with pens over a totally slatted floor that provided approximately 8 ft^2 per pig. Each pen was equipped with a dry, self-feeder and one nipple waterer, providing ad libitum access to feed and water. The facility was a mechanically-ventilated room with a pull-plug, manure storage pit.
A total of 144 finishing pigs from a single group (72 barrows and 72 gilts) were utilized for the experiments. Pigs were blocked by weight and gender, and allotted to one of 9 dietary treatments for an average period of 27 days pre-harvest. Each pen served as an experimental unit, with 2 pigs/pen and 8 replications to provide 16 pigs per treatment.
Experimental diets were provided in meal form and astaxanthin (0, 5, 7.5 and 10 ppm) was added to the control diet at the expense of corn starch to achieve the dietary treatments (Table 1). Paylean® was added to the diets indicated to contain 10 ppm.
Pigs were weighed on day 0, 7, 14, 21, and ˜27 to calculate average daily gain, average daily feed intake, and feed efficiency. Upon completion of the collection of growth performance data, all pigs were euthanized and processed for the collection of standard carcass measurements (dressing percentage, 10th rib backfat depth, loin muscle area, etc.).
Data were analyzed as a randomized complete block design using the PROC MIXED procedure of SAS with pen as the experimental unit. Linear and quadratic polynomial contrasts were used to determine the effect of increasing astaxanthin, with and without addition of Paylean®.
The source of natural astaxanthin used in this example was the yeast Phaffia rhodozyma which is commercially available under the trade name Aquasta® containing 10000 ppm astaxanthin, by weight.

finishing pigs [2] = conditions: Yang et al., cited from earlier work
[3] = 10 ppm Paylean, 0 ppm astaxanthin
[4] = 5 ppm astaxanthin in diet, without Paylean
[5] = 7.5 ppm astaxanthin in diet, without Paylean
[6] = 10 ppm astaxanthin in diet, without Paylean

Compound: CC(CCc1ccc(O)cc1)NCC(O)c1ccc(O)cc1 (stereo not drawn) [Paylean®, ractopamine hydrochloride, reference compound]
- hot carcass weight, dressing percent and loin eye area (pigs): increase
- LEA (loin eye areas), average (finishing pigs [1]; 10 ppm Paylean alone): 8.29 square inches
- increase of LEA over control pigs (finishing pigs [1]; 10 ppm Paylean alone vs control diet without astaxanthin or Paylean): 1.03 square inches
- BF-10th rib (Back Fat) (finishing pigs [1]; [3]): 0.81 in.
- BF-avg. (Back Fat) (finishing pigs [1]; [3]): 1.06 in.
- Body weight, Final (finishing pigs [1]; [3]): 297.1 lb
- Carcass Yield (finishing pigs [1]; [3]): 72.0%
- HCW (Hot Carcass Weight) (finishing pigs [1]; [3]): 213.9 lb
- LEA-10th rib (Loin Eye Area) (finishing pigs [1]; [3]): 8.29 in^2
- PFFL (Percent Fat Free Lean, SFFL/HCW) (finishing pigs [1]; [3]): 53.8%
- SFFL (Standard Fat Free Lean) (finishing pigs [1]; [3]): 115.2 lb
- SFFL (standard fat free lean) (finishing pigs [1]; 10 ppm Paylean, control 108.4 pounds): 115.2 pounds
- ADFI (Average Daily Feed Intake) (finishing pigs [1]; [3]): 8.05 lb
- ADG (Average Daily Gain) (finishing pigs [1]; [3]): 2.83 lb
- F/G (Pounds of feed to gain one pound of weight) (finishing pigs [1]; [3]): 2.86
- G/F (Reciprocal of F/G) (finishing pigs [1]; [3]): 0.35

Compound: CC1=C(/C=C/C(C)=C/C=C/C(C)=C/C=C/C=C(C)/C=C/C=C(C)/C=C/C2=C(C)C(=O)C(O)CC2(C)C)C(C)(C)CC(O)C1=O (stereo not drawn) [astaxanthin, 3,3′-dihydroxy-β,β-carotene-4,4′ dione]
- production performance (finishing pigs [2]; 0, 1.5 and 3.0 ppm astaxanthin in diet of finishing pigs): no significant effect
- dressing percentage, back fat thickness and loin muscle area (finishing pigs [2]; increasing dietary astaxanthin level (0, 1.5, 3.0 ppm)): linear effect
- BF-10th rib (Back Fat) (finishing pigs [1]; [4]): 0.84 in.
- BF-avg. (Back Fat) (finishing pigs [1]; [4]): 1.12 in.
- Body weight, Final (finishing pigs [1]; [4]): 287.6 lb
- Carcass Yield (finishing pigs [1]; [4]): 70.4%
- HCW (Hot Carcass Weight) (finishing pigs [1]; [4]): 202.6 lb
- LEA-10th rib (Loin Eye Area) (finishing pigs [1]; [4]): 7.55 in^2
- PFFL (Percent Fat Free Lean, SFFL/HCW) (finishing pigs [1]; [4]): 52.8%
- SFFL (Standard Fat Free Lean) (finishing pigs [1]; [4]): 107.1 lb
- LEA (loin eye areas), average (finishing pigs [1]; 7.5 ppm astaxanthin alone): 7.36 square inches
- increase of LEA over control pigs (finishing pigs [1]; 7.5 ppm astaxanthin alone vs diets without astaxanthin): 0.10 square inches
- BF-10th rib (Back Fat) (finishing pigs [1]; [5]): 0.81 in.
- BF-avg. (Back Fat) (finishing pigs [1]; [5]): 1.02 in.
- Body weight, Final (finishing pigs [1]; [5]): 287.4 lb
- Carcass Yield (finishing pigs [1]; [5]): 71.5%
- HCW (Hot Carcass Weight) (finishing pigs [1]; [5]): 203.4 lb
- LEA-10th rib (Loin Eye Area) (finishing pigs [1]; [5]): 7.36 in^2
- PFFL (Percent Fat Free Lean, SFFL/HCW) (finishing pigs [1]; [5]): 52.9%
- SFFL (Standard Fat Free Lean) (finishing pigs [1]; [5]): 107.6 lb
- BF-10th rib (Back Fat) (finishing pigs [1]; [6]): 0.77 in.
- BF-avg. (Back Fat) (finishing pigs [1]; [6]): 1.04 in.
- Body weight, Final (finishing pigs [1]; [6]): 286.2 lb
- Carcass Yield (finishing pigs [1]; [6]): 70.8%
- HCW (Hot Carcass Weight) (finishing pigs [1]; [6]): 202.5 lb
- LEA-10th rib (Loin Eye Area) (finishing pigs [1]; [6]): 7.53 in^2
- PFFL (Percent Fat Free Lean, SFFL/HCW) (finishing pigs [1]; [6]): 53.7%
- SFFL (Standard Fat Free Lean) (finishing pigs [1]; [6]): 108.6 lb
- ADFI (Average Daily Feed Intake) (finishing pigs [1]; [4]): 8.06 lb
- ADG (Average Daily Gain) (finishing pigs [1]; [4]): 2.34 lb
- F/G (Pounds of feed to gain one pound of weight) (finishing pigs [1]; [4]): 3.44
- G/F (Reciprocal of F/G) (finishing pigs [1]; [4]): 0.29
- ADFI (Average Daily Feed Intake) (finishing pigs [1]; [5]): 8.03 lb
- ADG (Average Daily Gain) (finishing pigs [1]; [5]): 2.45 lb
- F/G (Pounds of feed to gain one pound of weight) (finishing pigs [1]; [5]): 3.28
- G/F (Reciprocal of F/G) (finishing pigs [1]; [5]): 0.31
- ADFI (Average Daily Feed Intake) (finishing pigs [1]; [6]): 8.01 lb
- ADG (Average Daily Gain) (finishing pigs [1]; [6]): 2.41 lb
- F/G (Pounds of feed to gain one pound of weight) (finishing pigs [1]; [6]): 3.35
- G/F (Reciprocal of F/G) (finishing pigs [1]; [6]): 0.30
- SFFL versus pigs fed a diet without astaxanthin (finishing pigs [1]; astaxanthin alone): no statistical difference
